# Reference: patent US20100248390A1, “COMPOSITIONS AND METHODS FOR IDENTIFYING LIGANDS OF ODORANT RECEPTORS” (DUKE UNIVERSITY, priority 2009, published 2010)
# Values joined by “and” are separate entries in the source; they are usually repeats but may differ in a detail not shown here. Equal entries are not always repeated.
# Tested on: mouse odorant receptors (ORs)
# Assay: CRE-luciferase assay of odorant receptor activation (Dual-Glo, Hana3A cells, RTP1S), dose-response EC50
# Assay type: cell-based
# Details: for log EC50, MOR184-1: receptor MOR184-1; for log EC50, MOR189-1 / log EC50 (Table 4 value), MOR189-1: receptor MOR189-1; for log EC50, MOR203-1 / log EC50 (Table 4 value), MOR203-1 / log EC50 of odorant at MOR203-1 (0 = no response): receptor MOR203-1; for log EC50, MOR138-1: receptor MOR138-1; for log EC50 (Table 4 value), MOR162-1: receptor MOR162-1; for log EC50 (Table 4 value), MOR170-1: receptor MOR170-1; for log EC50 (Table 4 value), MOR185-1: receptor MOR185-1; for log EC50 (Table 4 value), MOR207-1: receptor MOR207-1; for log EC50 (Table 4 value), MOR222-1: receptor MOR222-1; for log EC50 (Table 4 value), MOR273-1: receptor MOR273-1; for log EC50 (Table 4 value), MOR161-1: receptor MOR161-1; for log EC50 of odorant at MOR260-1 (0 = no response): receptor MOR260-1; for log EC50 of odorant at MOR5-1 (0 = no response): receptor MOR5-1; for log EC50 of odorant at MOR30-1 (0 = no response): receptor MOR30-1; for log EC50 of odorant at MOR33-1 (0 = no response): receptor MOR33-1; for log EC50 of odorant at MOR40-1 (0 = no response): receptor MOR40-1
# [1] = receptor MOR41-1, 0 = no response
# [2] = receptor MOR139-1, 0 = no response
# [3] = receptor MOR271-1, 0 = no response
# [4] = receptor MOR261-1, 0 = no response
# [5] = receptor MOR272-1, 0 = no response
compound,measurement,setting,value
"C=C(C)C1CC=C(C)C(=O)C1 (single isomer, unassigned; (-)) [(−)-Carvone]","log EC50, MOR41-1",[1],−4.257
same,"log EC50, MOR139-1",[2],−3.861
same,"log EC50, MOR184-1",0 = no response,−3.92
same,"log EC50, MOR189-1",0 = no response,−4.147
same,"log EC50, MOR203-1",0 = no response,−3.938
same,"log EC50, MOR271-1",[3],−4.14
"CC(C)=CCCC(C)CCO (single isomer, unassigned; (-)) [(−)-b-C ? inedol]","log EC50, MOR138-1",0 = no response,−3.347
same,"log EC50, MOR203-1",0 = no response,−3.147
CCCCCCCCCCO [1-Decanol],"log EC50, MOR203-1",0 = no response,−3.299
same,"log EC50, MOR261-1",[4],−3.273
CCCCCCCO [1-Heptanol],"log EC50, MOR41-1",[1],−3.68
same,"log EC50, MOR203-1",0 = no response,−3.387
same,"log EC50, MOR261-1",[4],−3.382
same,"log EC50, MOR271-1",[3],−3.47
same,"log EC50, MOR272-1",[5],−4.181
O=C1CCOc2ccccc21 [4-Chromanone],"log EC50 (Table 4 value), MOR41-1",receptor MOR41-1,−4.747
same,"log EC50 (Table 4 value), MOR129-1",receptor MOR129-1,−3.785
same,"log EC50 (Table 4 value), MOR139-1",receptor MOR139-1,−4.028
same,"log EC50 (Table 4 value), MOR162-1",,−4.225
same,"log EC50 (Table 4 value), MOR170-1",,−4.209
same,"log EC50 (Table 4 value), MOR185-1",,−3.833
same,"log EC50 (Table 4 value), MOR189-1",,−3.684
same,"log EC50 (Table 4 value), MOR207-1",,−3.724
same,"log EC50 (Table 4 value), MOR222-1",,−3.618
same,"log EC50 (Table 4 value), MOR271-1",receptor MOR271-1,−4.047
same,"log EC50 (Table 4 value), MOR272-1",receptor MOR272-1,−4.043
same,"log EC50 (Table 4 value), MOR273-1",,−4.201
same,"log EC50 (Table 4 value), MOR277-1",receptor MOR277-1,−3.415
C=C(C)[C@H]1CC=C(C)C(=O)C1 [(+)-Carvone],"log EC50, MOR41-1",[1],−4.644
same,"log EC50, MOR129-1","receptor MOR129-1, 0 = no response",−4.145
same,"log EC50, MOR139-1",[2],−4.032
same,"log EC50, MOR184-1",0 = no response,−3.812
same,"log EC50, MOR189-1",0 = no response,−4.302
same,"log EC50, MOR203-1",0 = no response,−3.814
same,"log EC50, MOR250-1","receptor MOR250-1, 0 = no response",−3.938
same,"log EC50, MOR271-1",[3],−4.098
same,"log EC50, MOR272-1",[5],−4.564
C=C(C)[C@@H]1CC[C@@H](C)C(=O)C1 [(+)-Dihydrocarvone],"log EC50, MOR41-1",[1],−4.301
same,"log EC50, MOR138-1",0 = no response,−3.498
same,"log EC50, MOR139-1",[2],−3.637
same,"log EC50, MOR182-1","receptor MOR182-1, 0 = no response",−3.406
same,"log EC50, MOR184-1",0 = no response,−3.55
same,"log EC50, MOR189-1",0 = no response,−3.976
same,"log EC50, MOR203-1",0 = no response,−4.241
same,"log EC50, MOR271-1",[3],−3.987
same,"log EC50, MOR272-1",[5],−4.273
CC(=O)c1ccccc1 [Acetophenone],"log EC50 (Table 4 value), MOR41-1",receptor MOR41-1,−5.039
same,"log EC50 (Table 4 value), MOR105-1",receptor MOR105-1,−3.429
same,"log EC50 (Table 4 value), MOR106-1",receptor MOR106-1,−3.854
same,"log EC50 (Table 4 value), MOR129-1",receptor MOR129-1,−5.484
same,"log EC50 (Table 4 value), MOR139-1",receptor MOR139-1,−3.935
same,"log EC50 (Table 4 value), MOR161-1",,−3.825
same,"log EC50 (Table 4 value), MOR162-1",,−4.778
same,"log EC50 (Table 4 value), MOR170-1",,−3.9
same,"log EC50 (Table 4 value), MOR185-1",,−4.016
same,"log EC50 (Table 4 value), MOR189-1",,−3.372
same,"log EC50 (Table 4 value), MOR207-1",,−3.608
same,"log EC50 (Table 4 value), MOR250-1",receptor MOR250-1,−3.975
same,"log EC50 (Table 4 value), MOR258-1",receptor MOR258-1,−3.358
same,"log EC50 (Table 4 value), MOR271-1",receptor MOR271-1,−4.05
same,"log EC50 (Table 4 value), MOR272-1",receptor MOR272-1,−3.922
C=CCOC(=O)Cc1ccccc1 [Allyl phenylacetate],"log EC50 (Table 4 value), MOR1-1",receptor MOR1-1,−3.581
same,"log EC50 (Table 4 value), MOR2-1",receptor MOR2-1,−3.253
same,"log EC50 (Table 4 value), MOR139-1",receptor MOR139-1,−3.625
same,"log EC50 (Table 4 value), MOR203-1",,−3.401
same,"log EC50 (Table 4 value), MOR222-1",,−3.369
same,"log EC50 (Table 4 value), MOR223-1",receptor MOR223-1,−4.178
same,"log EC50 (Table 4 value), MOR236-1",receptor MOR236-1,−4.052
same,"log EC50 (Table 4 value), MOR258-17",receptor MOR258-17,−3.842
same,"log EC50 (Table 4 value), MOR261-1",receptor MOR261-1,−3.425
same,"log EC50 (Table 4 value), MOR268-1",receptor MOR268-1,−3.434
same,"log EC50 (Table 4 value), MOR271-1",receptor MOR271-1,−4.23
same,"log EC50 (Table 4 value), MOR272-1",receptor MOR272-1,−4.824
CC(=O)OCc1ccccc1 [Benzyl acetate],"log EC50 (Table 4 value), MOR41-1",receptor MOR41-1,−3.972
same,"log EC50 (Table 4 value), MOR139-1",receptor MOR139-1,−3.729
same,"log EC50 (Table 4 value), MOR203-1",,−3.531
same,"log EC50 (Table 4 value), MOR223-1",receptor MOR223-1,−3.841
same,"log EC50 (Table 4 value), MOR261-1",receptor MOR261-1,−3.352
same,"log EC50 (Table 4 value), MOR271-1",receptor MOR271-1,−5.379
same,"log EC50 (Table 4 value), MOR272-1",receptor MOR272-1,−4.948
O=c1ccc2ccccc2o1 [Coumarin],"log EC50 (Table 4 value), MOR41-1",receptor MOR41-1,−4.785
same,"log EC50 (Table 4 value), MOR106-1",receptor MOR106-1,−3.919
same,"log EC50 (Table 4 value), MOR129-1",receptor MOR129-1,−4.04
same,"log EC50 (Table 4 value), MOR139-1",receptor MOR139-1,−3.749
same,"log EC50 (Table 4 value), MOR161-1",,−3.139
same,"log EC50 (Table 4 value), MOR162-1",,−4.483
same,"log EC50 (Table 4 value), MOR170-1",,−3.989
same,"log EC50 (Table 4 value), MOR185-1",,−4.042
same,"log EC50 (Table 4 value), MOR189-1",,−3.215
same,"log EC50 (Table 4 value), MOR207-1",,−3.905
same,"log EC50 (Table 4 value), MOR250-1",receptor MOR250-1,−3.855
same,"log EC50 (Table 4 value), MOR258-1",receptor MOR258-1,−4.296
same,"log EC50 (Table 4 value), MOR259-1",receptor MOR259-1,−3.834
CCCCCC1=C(C)CCC1=O [Dihydroiasmone],"log EC50 (Table 4 value), MOR41-1",receptor MOR41-1,−3.766
same,"log EC50 (Table 4 value), MOR139-1",receptor MOR139-1,−4.308
same,"log EC50 (Table 4 value), MOR189-1",,−3.945
same,"log EC50 (Table 4 value), MOR205-1",receptor MOR205-1,−4.699
same,"log EC50 (Table 4 value), MOR271-1",receptor MOR271-1,−4.126
same,"log EC50 (Table 4 value), MOR272-1",receptor MOR272-1,−4.447
same,"log EC50 (Table 4 value), MOR273-1",,−4.441
CC(C)=CCC/C(C)=C/CO [Getaniol],"log EC50 (Table 4 value), MOR139-1",receptor MOR139-1,−3.939
same,"log EC50 (Table 4 value), MOR203-1",,−3.622
same,"log EC50 (Table 4 value), MOR238-1",receptor MOR238-1,−3.843
same,"log EC50 (Table 4 value), MOR268-1",receptor MOR268-1,−3.897
CCCCCCCCCS [Nonanethiol],log EC50 of odorant at MOR203-1 (0 = no response),,−3.528
same,log EC50 of odorant at MOR260-1 (0 = no response),,−4.488
same,log EC50 of odorant at MOR261-1 (0 = no response),receptor MOR261-1,−3.376
same,log EC50 of odorant at MOR268-1 (0 = no response),receptor MOR268-1,−3.589
CCCCCCCCC(=O)O [Nonanoic acid],log EC50 of odorant at MOR5-1 (0 = no response),,−4.029
same,log EC50 of odorant at MOR18-1 (0 = no response),receptor MOR18-1,−4.077
same,log EC50 of odorant at MOR30-1 (0 = no response),,−4.396
same,log EC50 of odorant at MOR33-1 (0 = no response),,−4.606
same,log EC50 of odorant at MOR37-1 (0 = no response),receptor MOR37-1,−3.9
same,log EC50 of odorant at MOR40-1 (0 = no response),,−4.128
same,log EC50 of odorant at MOR203-1 (0 = no response),,−3.478
same,log EC50 of odorant at MOR260-1 (0 = no response),,−4.108
CCCCCCCCS [Octanethiol],log EC50 of odorant at MOR203-1 (0 = no response),,−3.356
CCCCCCCC(=O)O [Octanoic Acid],log EC50 of odorant at MOR5-1 (0 = no response),,−3.711
same,log EC50 of odorant at MOR23-1 (0 = no response),receptor MOR23-1,−5.053
same,log EC50 of odorant at MOR25-1 (0 = no response),receptor MOR25-1,−3.689
same,log EC50 of odorant at MOR30-1 (0 = no response),,−3.68
same,log EC50 of odorant at MOR33-1 (0 = no response),,−4.212
same,log EC50 of odorant at MOR40-1 (0 = no response),,−3.617
CC(=O)Oc1ccccc1 [Phenyl acetate],log EC50 of odorant at MOR41-1 (0 = no response),receptor MOR41-1,−4.143
same,log EC50 of odorant at MOR106-1 (0 = no response),receptor MOR106-1,−3.874
same,log EC50 of odorant at MOR139-1 (0 = no response),receptor MOR139-1,−3.421 and −3.385
same,log EC50 of odorant at MOR223-1 (0 = no response),receptor MOR223-1,−3.487
same,log EC50 of odorant at MOR250-1 (0 = no response),receptor MOR250-1,−3.545
same,log EC50 of odorant at MOR258-1 (0 = no response),receptor MOR258-1,−3.099
same,log EC50 of odorant at MOR271-1 (0 = no response),receptor MOR271-1,−5.033
same,log EC50 of odorant at MOR272-1 (0 = no response),receptor MOR272-1,−5.098
